Broadly, the EC50 is the concentration giving half of the maximal effect.

The text below walks through data of patent US20230083973A1, “SUBSTITUTED CYCLOPROPYL-2,2'-BIP[…], ANALOGUES THEREOF, AND METHODS USING SAME” (priority 2019, published 2023).

The subject of this experiment is HBsAg. Put plainly: HBsAg assay: inhibition of HBsAg in HepG2.2.15 cells (chemiluminescence immunoassay of supernatant). The experiment is classed as cell-based, hepatitis B virus. As to conditions: HBsAg in supernatant at day 6 after exposure to compound, 0.5% DMSO. The procedure:
Inhibition of HBsAg was determined in HepG2.2.15 cells. Cells were maintained in culture medium containing 10% fetal calf serum, […], Glutamine, penicillin/streptomycin. Cells were seeded in 96-well collagen-coated plate at a density of 30,000 cells/well. Serially diluted compounds were added to cells next day at the final DMSO concentration of 0.5%. Cells were incubated with compounds for 2-3 days, after which medium was removed. Fresh medium containing compounds was added to cells for additional 3-4 days. At day 6 after exposure of compounds, supernatant was collected, the HBsAg immunoassay (microplate-based chemiluminescence immunoassay kits, CLIA, Autobio Diagnosics Co., Zhengzhou, China, Catalog # CL0310-2) was used to determine the level of HBsAg according to manufactory instruction. Dose-response curves were generated and the EC50 value (effective concentrations that achieved 50% inhibitory effect) were determined using XLfit software. In addition, cells were seeded at a density of 5,000 cells/well for determination of cell viability in the presence and absence of compounds by using CellTiter-Glo reagent (Promega).
Table 1 illustrates EC50 values obtained by the HBsAg assay for selected compounds.

Setting [1] is: read-out: sAg EC50, HepG2.2.15 cells.
The mark [2] stands for this setting: Hepatitis B virus, HepG2.2.15, 144 h, read-out: sAg EC50, HepG2.2.15 cells.

Like-named read-outs stand apart in the source and are kept apart here.

As for `Fc1cc(C2CC2c2cnc(-c3ncccn3)nc2)cc(NC2CCCC2)c1F` (single isomer, unassigned) [Example 207, trans-5-(2-([2,2′-Bipyrimidin]-5-yl)cyclopropyl)-N-cyclopentyl-2,3-difluoroaniline], the EC50 under setting [1] was 750 nM.
Take `Fc1cc([C@@H]2C[C@H]2c2cnc(-c3ncccn3)nc2)cc2ccccc12` (relative stereo) [Example 169, trans-5-(2-(4-Fluoronaphthalen-2-yl)cyclopropyl)-2,2′-bipyrimidine]: the EC50 under setting [2] worked out at 36 nM.
Same read-out and setting: to `Fc1ccc([C@@H]2C[C@H]2c2ccnc(-c3ncccn3)n2)cc1F` (relative stereo) [Example 4, trans-4-(2-(3,4-Difluorophenyl)cyclopropyl)-2,2′-bipyrimidine] belongs 7000 nM; to `Fc1cc(C2CC2c2cnc(-c3ncccn3)nc2)cc(N2CCCC2)c1Cl` (single isomer, unassigned) [Example 90, trans-5-(2-(4-Chloro-3-fluoro-5-(pyrrolidin-1-yl)phenyl)cyclopropyl)-2,2′-bipyrimidine], 28 nM.
Turning to `Fc1ccc(C2CC2c2cnc(-c3ncccn3)nc2)cc1OCC1CC1` (single isomer, unassigned) [Example 26, trans-5-(2-(3-(Cyclopropylmethoxy)-4-fluorophenyl)cyclopropyl)-2,2′-bipyrimidine], the 50% effective concentration (EC50) under setting [1] came to 29 nM.
On to `COc1ccc(C2CC2c2cnc(-c3ncccn3)nc2)cc1F` (single isomer, unassigned) [Example 12, trans-5-(2-(3-Fluoro-4-methoxyphenyl)cyclopropyl)-2,2′-bipyrimidine], for which the EC50 under setting [2] came out at 110 nM.
As for `CO[C@H]1CN(c2cc(C3CC3c3cnc(-c4ncccn4)nc3)cc(F)c2F)C[C@H]1OC` (relative stereo) [Example 235, trans-5-(2-(3-((3R,4S)-3,4-Dimethoxypyrrolidin-1-yl)-4,5-difluorophenyl)cyclopropyl)-2,2′-bipyrimidine], the EC50 under setting [2] was 39 nM.
Same read-out and setting: to `COc1cc([C@@H]2C[C@H]2c2cnc(-c3ccncn3)nc2)cc(F)c1F` (relative stereo) [Example 177, trans-5-(2-(3,4-Difluoro-5-methoxyphenyl)cyclopropyl)-2,4′-bipyrimidine] belongs 360 nM.
Turning to `CN1CC[C@@H](Nc2cc(C3CC3c3cnc(-c4ncccn4)nc3)cc(F)c2F)C1` (single isomer, unassigned) [Example 231], the half-maximal effective concentration (EC50) under setting [1] worked out at 750 nM.
Take `CO[C@@H]1CCN(c2cc(C3CC3c3cnc(-c4ncccn4)nc3)ccc2F)C1` (single isomer, unassigned) [Example 94]: the EC50 under setting [2] is 270 nM.
On to `CCCc1cc(F)c(OC)cc1C1CC1c1cnc(-c2ncccn2)nc1` (single isomer, unassigned) [Example 37, trans-5-(2-(4-Fluoro-5-methoxy-2-propylphenyl)cyclopropyl)-2,2′-bipyrimidine], for which the concentration giving a half-maximal response (EC50) under setting [1] worked out at 2000 nM.
Take `CO[C@@H]1CCN(c2cc(C3CC3c3cnc(-c4ncccn4)nc3)cc(Cl)c2F)C1` (single isomer, unassigned) [Example 110]: the concentration giving a half-maximal response (EC50) under setting [2] was 190 nM.
On the same count and under the same terms, to `Cc1cnn(-c2cc([C@@H]3C[C@H]3c3cnc(-c4ncccn4)nc3)cc(F)c2F)c1` (relative stereo) [Example 232, trans-5-(2-(3,4-Difluoro-5-(4-methyl-1H-pyrazol-1-yl)phenyl)cyclopropyl)-2,2′-bipyrimidine] belongs 28 nM.
Regarding `Cc1cn(-c2cc(C3CC3c3cnc(-c4ncccn4)nc3)cc(F)c2F)cn1` (single isomer, unassigned) [Example 262, trans-5-(2-(3,4-Difluoro-5-(4-methyl-1H-imidazol-1-yl)phenyl)cyclopropyl)-2,2′-bipyrimidine], the EC50 under setting [1] was 47 nM.
Regarding `Fc1ccc(C2CC2c2cnc(-c3ncccn3)nc2)cc1N1CCC(F)(F)C1` (single isomer, unassigned) [Example 43, trans-5-(2-(3-(3,3-Difluoropyrrolidin-1-yl)-4-fluorophenyl)cyclopropyl)-2,2′-bipyrimidine], the EC50 under setting [1] is 250 nM.
For the molecule `COc1cc(C2CC2c2cnc(-c3ncccn3)c3ccccc23)ccc1F` (single isomer, unassigned) [Example 193, trans-4-(2-(4-Fluoro-3-methoxyphenyl)cyclopropyl)-1-(pyrimidin-2-yl)isoquinoline], the 50% effective concentration (EC50) under setting [2] was 43000 nM.
Consider `CC1(C)CCN(c2cc(C3CC3c3cnc(-c4ncccn4)nc3)cc(F)c2F)C1` (single isomer, unassigned) [Example 220, trans-5-(2-(3-(3,3-Dimethylpyrrolidin-1-yl)-4,5-difluorophenyl)cyclopropyl)-2,2′-bipyrimidine], for which the EC50 under setting [1] was 30 nM.
As to `COc1cc(C2CC2c2cnc(-c3ncccn3)nc2)cc(OC)c1Cl` (single isomer, unassigned) [Example 99, trans-5-(2-(4-Chloro-3,5-dimethoxyphenyl)cyclopropyl)-2,2′-bipyrimidine], the 50% effective concentration (EC50) under setting [1] came to 3000 nM.
Same read-out and setting: to `COc1cc(C2CC2c2cnc(-c3ncccn3)nc2C(C)C)ccc1F` (single isomer, unassigned) [Example 74, trans-5-(2-(4-Fluoro-3-methoxyphenyl)cyclopropyl)-4-isopropyl-2,2′-bipyrimidine] belongs 10000 nM.
For `Fc1ccc(C2CC2c2cnc(-c3ncccn3)nc2)cc1N1CCCC1` (single isomer, unassigned) [Example 19, trans-5-(2-(4-Fluoro-3-(pyrrolidin-1-yl)phenyl)cyclopropyl)-2,2′-bipyrimidine], the EC50 under setting [2] amounted to 39 nM.
Consider `CN1CC[C@H](Nc2cc(C3CC3c3cnc(-c4ncccn4)nc3)cc(F)c2F)C1` (single isomer, unassigned) [Example 228], for which the concentration giving a half-maximal response (EC50) under setting [1] came to 15000 nM.
The same measure, in the same setting: to `Fc1c(Cl)cc(C2CC2c2cnc(-c3ncccn3)nc2)cc1N1CCCC1` (single isomer, unassigned) [Example 109, trans-5-(2-(3-Chloro-4-fluoro-5-(pyrrolidin-1-yl)phenyl)cyclopropyl)-2,2′-bipyrimidine] belongs 25 nM.
Turning to `Cc1nc2c(F)cc([C@@H]3C[C@H]3c3cnc(-c4ncccn4)nc3)cc2s1` (relative stereo) [Example 272, trans-6-(2-([2,2′-Bipyrimidin]-5-yl)cyclopropyl)-4-fluoro-2-methylbenzo[d]thiazole], under setting [2], the EC50 was determined as 73 nM.
On to `COc1cc(C2CC2c2cnc(-c3ncccn3)nc2)cnc1OC` (single isomer, unassigned) [Example 184, trans-5-(2-(5,6-Dimethoxypyridin-3-yl)cyclopropyl)-2,2′-bipyrimidine], for which the EC50 under setting [1] came to 1100 nM.
Turning to `Fc1cc([C@@H]2C[C@H]2c2cnc(-c3ncccn3)nc2)cc(N2CC3(COC3)C2)c1F` (relative stereo) [Example 209, trans-6-(5-(2-([2,2′-Bipyrimidin]-5-yl)cyclopropyl)-2,3-difluorophenyl)-2-oxa-6-azaspiro[3.3]heptane], the EC50 under setting [2] was 120 nM.
`Fc1cc(C2CC2c2cnc(-c3ncccn3)nc2)cc(O[C@H]2CCOC2)c1F` (single isomer, unassigned) [Example 249]: the EC50 under setting [1] amounted to 800 nM.
Consider `COc1cc(F)cc(C2CC2c2cnc(-c3ncccn3)nc2)c1` (single isomer, unassigned) [Example 113, trans-5-(2-(3-Fluoro-5-methoxyphenyl)cyclopropyl)-2,2′-bipyrimidine], for which the EC50 under setting [1] came to 26 nM.
